From the NIST ThermoML archive (doi:10.1021/acs.jced.8b00176)

Assay: xn = mol fraction of the nth substance listed
Details: 100 kPa, Liquid; for viscosity: Falling or rolling sphere viscometry; for speed of sound: Frequency=3 MHz, Single path-length method; for mass density: Vibrating tube method

CC#N [acetonitrile] + CN(C)C=O
Details	mass density [kg/m3]	speed of sound [m/s]	viscosity [mPa·s]
298.15 K, x2 = 0	776.714	1278.5	0.34
298.15 K, x2 = 0.0989	802.565	1302.5	0.4
298.15 K, x2 = 0.1916	826.376	1322	0.44
298.15 K, x2 = 0.2925	844.614	1339.6	0.48
298.15 K, x2 = 0.3932	865.725	1361.6	0.54
298.15 K, x2 = 0.5029	880.889	1377.5	0.61
298.15 K, x2 = 0.6002	895.421	1395.9	0.65
298.15 K, x2 = 0.6931	907.546	1411.4	0.69
298.15 K, x2 = 0.7926	922.026	1429.2	0.75
298.15 K, x2 = 0.8996	932.676	1442.8	0.79
303.15 K, x2 = 0	771.289	1258.4	0.32
303.15 K, x2 = 0.0989	797.299	1282.7	0.39
303.15 K, x2 = 0.1916	821.229	1302.3	0.42
303.15 K, x2 = 0.2925	839.435	1320.1	0.46
303.15 K, x2 = 0.3932	860.639	1342.2	0.51
303.15 K, x2 = 0.5029	875.938	1358.1	0.57
303.15 K, x2 = 0.6002	890.518	1376.6	0.61
303.15 K, x2 = 0.6931	902.756	1392	0.65
303.15 K, x2 = 0.7926	917.22	1409.9	0.7
303.15 K, x2 = 0.8996	927.901	1423.3	0.75
308.15 K, x2 = 0	765.833	1238.2	0.31
308.15 K, x2 = 0.0989	792.024	1262.9	0.37
308.15 K, x2 = 0.1916	816.008	1282.5	0.4
308.15 K, x2 = 0.2925	834.219	1300.5	0.44
308.15 K, x2 = 0.3932	855.56	1322.6	0.49
308.15 K, x2 = 0.5029	870.924	1338.6	0.54
308.15 K, x2 = 0.6002	885.607	1357.2	0.58
308.15 K, x2 = 0.6931	897.887	1372.6	0.61
308.15 K, x2 = 0.7926	912.402	1390.5	0.66
308.15 K, x2 = 0.8996	923.153	1404	0.71
313.15 K, x2 = 0	760.339	1218	0.3
313.15 K, x2 = 0.0989	786.729	1243	0.35
313.15 K, x2 = 0.1916	810.757	1262.8	0.39
313.15 K, x2 = 0.2925	829.087	1280.9	0.42
313.15 K, x2 = 0.3932	850.487	1303.2	0.46
313.15 K, x2 = 0.5029	865.854	1319.2	0.51
313.15 K, x2 = 0.6002	880.698	1337.9	0.55
313.15 K, x2 = 0.6931	893.049	1353.3	0.58
313.15 K, x2 = 0.7926	907.663	1371.3	0.63
313.15 K, x2 = 0.8996	918.366	1384.7	0.69
318.15 K, x2 = 0	754.815	1197.9	0.29
318.15 K, x2 = 0.0989	781.363	1223.3	0.33
318.15 K, x2 = 0.1916	805.527	1243.1	0.37
318.15 K, x2 = 0.2925	823.852	1261.3	0.4
318.15 K, x2 = 0.3932	845.354	1283.7	0.44
318.15 K, x2 = 0.5029	860.76	1299.9	0.49
318.15 K, x2 = 0.6002	875.703	1318.6	0.52
318.15 K, x2 = 0.6931	888.143	1334	0.55
318.15 K, x2 = 0.7926	902.79	1352.1	0.59
318.15 K, x2 = 0.8996	913.57	1365.5	0.63
323.15 K, x2 = 0	749.253	1177.8	0.28
323.15 K, x2 = 0.0989	776.028	1203.5	0.32
323.15 K, x2 = 0.1916	800.222	1223.4	0.35
323.15 K, x2 = 0.2925	818.614	1241.9	0.38
323.15 K, x2 = 0.3932	840.213	1264.4	0.42
323.15 K, x2 = 0.5029	855.738	1280.6	0.46
323.15 K, x2 = 0.6002	870.738	1299.4	0.5
323.15 K, x2 = 0.6931	883.209	1314.8	0.53
323.15 K, x2 = 0.7926	897.991	1332.9	0.56
323.15 K, x2 = 0.8996	908.741	1346.3	0.6
